SMILES strings stand for the structures. pIC50: −log10 of the molar value.

The subject of assay [1] is IL-23-stimulated STAT-dependent luciferase reporter in Kit225 T cells. Put plainly: Kit225 T cell assay, IL-23 stimulated STAT-dependent luciferase reporter. The note with it: Kit225 T cells, 20 ng/mL human recombinant IL-23, 5-6 hours, luciferase; read-out: IL23 (Kit225 T Cell Inhibition Data). The format is cell-based, human. Put shortly: (§1)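 Kit225 T cells carrying a stably integrated STAT-luciferase reporter, in RPMI with 10% heat-inactivated FBS, were stimulated with 20 ng/mL IL-23 or 200 U/mL IFNα for 5-6 h. Readout was luminescence from the luciferase reporter.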
(In a reporter assay the amount or activity of a reporter protein is the signal.)

Assay [2] has as its system IFNα-stimulated STAT-dependent luciferase reporter in Kit225 T cells. The experiment in a line: Kit225 T cell assay, IFNα stimulated STAT-dependent luciferase reporter. The format is cell-based, human. Conditions: Kit225 T cells, 200 U/mL human recombinant IFNα, 5-6 hours, luciferase; read-out: IFNα (Kit225 T Cell Inhibition Data). The essentials:
as §1

`CNC(=O)c1cnc(Nc2ccc(C)cn2)cc1Nc1ccccc1S(C)(=O)=O` [Example 22]: the pIC50 in assay [1] is 7.19; in assay [2] it was 7.30.

On to `CNC(=O)c1cnc(Nc2ccc(N3CCOCC3)cn2)cc1Nc1ccc(OC)cc1S(C)(=O)=O` [Example 7], for which the pIC50 in assay [1] is 6.81; in assay [2], 7.00.

Consider `CNC(=O)c1cnc(Nc2cc(C(C)(C)C)ncn2)cc1Nc1ccccc1S(C)(=O)=O` [Example 421], for which the pIC50 in assay [1] is 6.34; in assay [2] it was 6.32.

On to `CCS(=O)(=O)c1ccccc1Nc1cc(Nc2ccc(F)cn2)ncc1C(=O)NC` [Example 32], for which the pIC50 in assay [1] is 5.66; in assay [2] it was 5.97.

`CNC(=O)c1cnc(Nc2ccccn2)cc1Nc1cccc(-c2ncn(C)n2)c1OC` [Example 374]: the pIC50 in assay [1] is 8.08; in assay [2], 8.16.

On to `CNC(=O)c1cnc(Nc2cc(C(=O)N(C)C)ccn2)cc1Nc1ccc(F)c(F)c1OC` [Example 258], for which the pIC50 is 6.19 in assay [1] and 6.51 in assay [2].

On to `CNC(=O)c1cnc(Nc2ccc(F)cn2)cc1Nc1ccc(S(C)(=O)=O)cc1` [Example 201], for which the pIC50 in assay [1] was 5.57; in assay [2] it was 5.16.

Consider `CNC(=O)c1cnc(Nc2cc(C)nc(C)n2)cc1Nc1cccc(-c2nc(C)nn2C)c1OC` [Example 367], for which the pIC50 in assay [1] is 7.70; in assay [2] it was 7.52.

Turning to `CNC(=O)c1cnc(Nc2cccc(-c3ccccc3)n2)cc1Nc1cc(F)cc(F)c1OC` [Example 143], the pIC50 is 6.11 in assay [1] and 6.25 in assay [2].

For `CNC(=O)c1cnc(Nc2cc(C#N)ccn2)cc1Nc1ccc(F)cc1OC` [Example 155], the pIC50 in assay [1] is 6.56; in assay [2] it was 6.72.

For `CNC(=O)c1cnc(Nc2cc(C)n(C)n2)cc1Nc1ccccc1S(C)(=O)=O` [Example 439], the pIC50 in assay [1] was 6.68; in assay [2], 6.96.

For the compound `CNC(=O)c1cnc(Nc2cc(C)c(F)cn2)cc1Nc1cccc(-c2ccnn2C)c1OC` [Example 392], the pIC50 in assay [1] was 6.77; in assay [2], 7.15.

With `CNC(=O)c1cnc(Nc2ncccc2Cl)cc1Nc1ccccc1C(N)=O` [Example 90], the values for the pIC50 in assay [1] and in assay [2] were 5.14 and 5.08, respectively.

As for `CNC(=O)c1cnc(Nc2cc(OC)ccn2)cc1Nc1ccccc1S(C)(=O)=O` [Example 15], the results for the pIC50 in assay [1] and in assay [2] were 6.97 and 7.10, respectively.

For `CNC(=O)c1ccc(Nc2cc(Nc3ccc(Cl)cc3OC)c(C(=O)NC)cn2)nc1` [Example 260], the pIC50 in assay [1] was 5.62; in assay [2], 5.75.

On to `CCNC(=O)c1cnc(Nc2ccc(F)cn2)cc1Nc1ccccc1OC` [Example 296], for which the results for the pIC50 in assay [1] and in assay [2] were 5.15 and 5.57, respectively.

In the case of `CNC(=O)c1cnc(Nc2ccc(F)cn2)cc1Nc1ccc(F)cc1OC` [Example 119], the results for the pIC50 in assay [1] and in assay [2] were 5.66 and 6.07, respectively.

Regarding `CNC(=O)c1cnc(Nc2cc(C#N)ccn2)cc1Nc1ccc(F)cc1OCF` [Example 166], the results for the pIC50 in assay [1] and in assay [2] were 6.80 and 7.05, respectively.

Take `CNC(=O)c1ccc(Nc2cc(Nc3ccc(F)cn3)ncc2C(=O)NC)cc1` [Example 243]: the pIC50 in assay [1] is 5.34; in assay [2] it was 5.68.

Take `CNC(=O)c1cnc(Nc2cc(C)c(F)cn2)cc1Nc1cccc(C(=O)NCCO)c1OC` [Example 336]: the pIC50 was 6.40 in assay [1] and 6.36 in assay [2].

In the case of `CNC(=O)c1cnc(Nc2cc(C)c(F)cn2)cc1Nc1cccc(C(=O)NCCC(C)(C)O)c1OC` [Example 333], the pIC50 in assay [1] is 6.92; in assay [2], 7.05.

As to `CNC(=O)c1cnc(Nc2ccc(-n3cc(F)ccc3=O)cn2)cc1Nc1ccc(F)cc1OC` [Example 126], the figures for the pIC50 in assay [1] and in assay [2] were 6.08 and 6.15, respectively.

In the case of `CNC(=O)c1cnc(Nc2cccc(C(F)(F)F)n2)cc1Nc1cc(F)cc(F)c1OC` [Example 138], the pIC50 is 6.45 in assay [1] and 6.66 in assay [2].

For the compound `CNC(=O)c1cnc(Nc2ccc(N3CCOCC3)cn2)cc1Nc1cccc2c1OCCO2` [Example 225], the pIC50 in assay [1] is 6.80; in assay [2] it was 7.05.

As to `CNC(=O)c1cnc(Nc2cc(C(=O)N(C)C)ccn2)cc1Nc1ccc(F)cc1OC` [Example 272], the values for the pIC50 in assay [1] and in assay [2] were 5.98 and 6.22, respectively.

Take `CNC(=O)c1cnc(Nc2cc(C)c(F)cn2)cc1Nc1cccc(-c2nnc(C)o2)c1OC` [Example 359]: the pIC50 was 7.70 in assay [1] and 8.00 in assay [2].

Take `CNC(=O)c1cnc(Nc2ccc(OC)cn2)cc1Nc1ccc(Cl)cc1OC` [Example 112]: the values for the pIC50 in assay [1] and in assay [2] were 6.14 and 6.40, respectively.

Turning to `CNC(=O)c1cnc(Nc2ccc3ccccc3n2)cc1NC1CCC(F)(F)CC1` [Example 292], the pIC50 in assay [1] is 5.33; in assay [2] it was 5.25.

Turning to `CNC(=O)c1cnc(Nc2ccc(F)cn2)cc1Nc1ccc(C(=O)N2CCOCC2)cc1` [Example 245], the pIC50 in assay [1] is 5.49; in assay [2], 5.44.

Regarding `CCN(CC)CCCNc1cc(Nc2cc(Nc3ccccc3S(C)(=O)=O)c(C(=O)NC)cn2)nc(C)n1` [Example 423], the pIC50 is 6.42 in assay [1] and 6.43 in assay [2].

On to `CNC(=O)c1cnc(Nc2ccccn2)cc1Nc1cccc(F)c1OC` [Example 172], for which the pIC50 in assay [1] is 7.05; in assay [2] it was 7.30.

For the compound `CNC(=O)c1cnc(Nc2ccc(F)cn2)cc1Nc1ccc(-c2ncco2)cc1S(C)(=O)=O` [Example 311], the values for the pIC50 in assay [1] and in assay [2] were 6.72 and 6.80, respectively.

Consider `CNC(=O)c1cnc(Nc2ccc(F)cn2)cc1Nc1ccc(Cl)cc1S(C)(=O)=O` [Example 11], for which the values for the pIC50 in assay [1] and in assay [2] were 6.79 and 7.22, respectively.

Consider `CNC(=O)c1cnc(Nc2ccc(C#N)c(C)n2)cc1Nc1ccccc1C(N)=O` [Example 86], for which the pIC50 was 5.74 in assay [1] and 6.37 in assay [2].

As for `CCOc1ccccc1Nc1cc(Nc2ccc(N3CCOCC3)cn2)ncc1C(=O)NC` [Example 223], the pIC50 in assay [1] is 6.41; in assay [2] it was 6.72.

For `CNC(=O)c1cnc(Nc2ccc(F)cn2)cc1Nc1ccc(C(=O)N2CCCCC2)cc1OC` [Example 239], the pIC50 in assay [1] is 6.53; in assay [2], 6.64.

For `CNC(=O)c1cnc(Nc2cc(C)nc(C)n2)cc1Nc1cccc(F)c1OC` [Example 410], the pIC50 was 7.70 in assay [1] and 8.06 in assay [2].

Take `CNC(=O)c1cnc(Nc2ccc(OC)cn2)cc1Nc1ccc(F)cc1OC` [Example 161]: the results for the pIC50 in assay [1] and in assay [2] were 6.12 and 6.21, respectively.

Consider `CNC(=O)c1cnc(Nc2ccc(F)cn2)cc1Nc1ccccc1C1CC1` [Example 185], for which the pIC50 in assay [1] is 5.59; in assay [2], 5.54.

With `CNC(=O)c1cnc(Nc2ccc(C(N)=O)cn2)cc1Nc1ccc(Cl)cc1OC` [Example 255], the pIC50 in assay [1] is 5.81; in assay [2], 6.15.

Take `CNC(=O)c1cnc(Nc2ccc(F)cn2)cc1Nc1ccc(C(=O)NC2CC2)cc1S(C)(=O)=O` [Example 309]: the pIC50 in assay [1] was 5.72; in assay [2] it was 6.20.

Take `CNC(=O)c1cnc(Nc2ccc(F)cn2)cc1Nc1ccc(C(=O)N2CCOCC2)cc1C` [Example 236]: the pIC50 in assay [1] was 5.66; in assay [2], 5.95.

With `CNC(=O)c1cnc(Nc2ccc(-n3cc(F)ccc3=O)cn2)cc1Nc1ccccc1S(C)(=O)=O` [Example 301], the pIC50 in assay [1] is 5.50; in assay [2] it was 5.84.

Regarding `CNC(=O)c1cnc(Nc2cc(C)c(F)cn2)cc1Nc1cccc(C(=O)NCC2CCC2)c1OC` [Example 332], the pIC50 is 6.42 in assay [1] and 6.89 in assay [2].

With `CNC(=O)c1cnc(Nc2cc(C)c(F)cn2)cc1Nc1cccc(C(=O)NCC2CC2)c1OC` [Example 324], the pIC50 is 6.66 in assay [1] and 7.15 in assay [2].

On to `CNC(=O)c1cnc(Nc2ccccn2)cc1Nc1ccc(S(C)(=O)=O)cc1OC` [Example 45], for which the figures for the pIC50 in assay [1] and in assay [2] were 5.37 and 5.90, respectively.

Regarding `CNC(=O)c1cnc(Nc2cc(C)nc(C)n2)cc1Nc1cccc(-c2ncn(CC(F)F)n2)c1OC` [Example 378], the pIC50 was 7.30 in assay [1] and 8.00 in assay [2].

On to `CNC(=O)c1cnc(Nc2ccc(F)cn2)cc1Nc1ccccc1OC(F)F` [Example 122], for which the results for the pIC50 in assay [1] and in assay [2] were 6.27 and 6.60, respectively.

For `CNC(=O)c1cnc(Nc2ccc(F)cn2)cc1Nc1cccc2c1OC(F)(F)O2` [Example 123], the pIC50 was 5.06 in assay [1] and 4.96 in assay [2].

Take `CNC(=O)c1cnc(Nc2cc(C(N)=O)ccn2)cc1Nc1ccc(F)cc1OC` [Example 267]: the values for the pIC50 in assay [1] and in assay [2] were 5.58 and 5.74, respectively.

Take `CNC(=O)c1cnc(Nc2ccc(F)cn2)cc1Nc1ccccc1NS(C)(=O)=O` [Example 279]: the pIC50 is 6.32 in assay [1] and 6.85 in assay [2].

As to `CCc1cccc(Nc2cc(Nc3cc(F)cc(F)c3OC)c(C(=O)NC)cn2)n1` [Example 141], the pIC50 in assay [1] is 6.40; in assay [2] it was 6.46.

Turning to `CNC(=O)c1cnc(Nc2cc(C(N)=O)ccn2)cc1Nc1cc(F)cc(F)c1OC` [Example 264], the pIC50 in assay [1] was 6.27; in assay [2], 6.46.

Consider `CNC(=O)c1cnc(Nc2ccc3ccccc3n2)cc1NC1CCCC1C(N)=O` (stereo not shown) [Example 288], for which the figures for the pIC50 in assay [1] and in assay [2] were 5.50 and 5.88, respectively.

Regarding `CNC(=O)c1cnc(Nc2cccc(F)n2)cc1Nc1ccccc1C(N)=O` [Example 74], the pIC50 was 6.63 in assay [1] and 6.59 in assay [2].

With `CNC(=O)c1cnc(Nc2cc(C)c(F)cn2)cc1Nc1ccccc1S(C)(=O)=O` [Example 60], the pIC50 was 7.22 in assay [1] and 7.40 in assay [2].

The record behind these values is patent publication US9315494B2, “Alkyl-amide-substituted pyridyl compounds useful as modulators of IL-12, IL-23 and/or IFNα responses” (Bristol-Myers Squibb Company, priority 2012, dated 2016).
